Assay results reported in patent publication US12357632B2, “Methods of treating cholangiocarcinoma” (QED Therapeutics, Inc., priority 2019, dated 2025).

System: advanced or metastatic cholangiocarcinoma with FGFR genetic alterations
Assay: Phase II study of oral BGJ398 in advanced or metastatic cholangiocarcinoma, Patient 5010004 (RECIST v1.1)
Type: in vivo, human
Protocol: This is a multi-center, open label, single arm phase II study evaluating BGJ398 anti-tumor activity in advanced or metastatic cholangiocarcinoma patients with FGFR genetic alterations. 125 mg of oral, monotherapy BGJ398 is administered once daily for the first 3 weeks (21 days) of each 28-day cycle. The starting dose of 125 mg may be reduced to 100 mg, 75 mg, or 50 mg. The treatment period begins on Cycle 1, Day 1, and continues until disease progression, unacceptable toxicity, withdrawal of informed consent, or death. Patients are evaluated for tumor response radiographically every 8 weeks until disease progression or discontinuation from study using RECIST v1.1 criteria.
Adult patients with histologically or cytologically confirmed advanced or metastatic cholangiocarcinoma with FGFR2 gene fusions or translocations or other FGFR genetic alteration who have evidence of radiologic progression following a cisplatin- and gemcitabine-containing regimen for advanced disease or a gemcitabine-containing regimen for those who are considered intolerant to cisplatin are enrolled. Up to approximately 160 adult patients over age 18, both male and female are enrolled. Three cohorts of patients comprise the study population: • Cohort 1: ˜120 patients, 108 with FGFR2 gene fusions or translocations and 12 with other FGFR genetic alterations. • Cohort 2: ˜20 patients with FGFR genetic alterations other than FGFR2 gene fusions or translocations. • Cohort 3: Up to ˜20 patients with FGFR2 gene fusions or translocations who have received a prior FGFR inhibitor. Main Inclusion Criteria
Tumor response according to RECIST v1.1, and survival.
During treatment with infigratinib, the patient's response was determined by follow-up assessments conducted by a local investigator per RECIST v1.1.

CCN1CCN(c2ccc(Nc3cc(N(C)C(=O)Nc4c(Cl)c(OC)cc(OC)c4Cl)ncn3)cc2)CC1 [Infigratinib, 3-(2,6-dichloro-3,5-dimethoxyphenyl)-1-{6-[4-(4-ethyl-1-piperazin-1-yl)phenylamino]-pyrimidinyl-4-yl}-1-methylurea]
New Lesion (Patient 5010004, Study Day 54): No
Non-Target Lesion Response (Patient 5010004, Study Day 54): Non-CR^1/Non-PD^2
Overall Response (Patient 5010004, Study Day 54): Stable disease
Target Lesion % Change from Baseline (Patient 5010004, Study Day 54): 18.33%
New Lesion (Patient 5010004, Study Day 83): No
Non-Target Lesion Response (Patient 5010004, Study Day 83): Non-CR/Non-PD
Overall Response (Patient 5010004, Study Day 83): Stable disease
Target Lesion % Change from Baseline (Patient 5010004, Study Day 83): 16.33%
New Lesion (Patient 5010004, Study Day 110): No
Non-Target Lesion Response (Patient 5010004, Study Day 110): Non-CR/Non-PD
Overall Response (Patient 5010004, Study Day 110): Stable disease
Target Lesion % Change from Baseline (Patient 5010004, Study Day 110): 16.33%
New Lesion (Patient 5010004, Study Day 153): No
Non-Target Lesion Response (Patient 5010004, Study Day 153): Progressive
Overall Response (Patient 5010004, Study Day 153): Progressive
Target Lesion % Change from Baseline (Patient 5010004, Study Day 153): 31.63%
duration of stable disease (Patient 5010004, first 3 follow-up assessments, local investigator, RECIST v1.1): at least 4 months
time to discontinuation for progressive disease (Patient 5010004, study treatment): approximately 5 months
